Counter-ions that a name gives are not always drawn.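 How tested: cells in 96-well plates exposed to compound for 48 hours at five concentrations. GI50 = concentration required for 50% inhibition of growth.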 Active and inactive are the calls of the source. Rule as the data show it: active = GI50 up to about 1.1 µM and inactive = higher.
Key:
Assay in all cases: inhibition of tumour cell growth, NCI panel, 48 h
NCI-H522 = test system: NCI-H522
LOX IMVI = test system: LOX IMVI
SF-268 = test system: SF-268
SK-MEL-28 = test system: SK-MEL-28
NCI-H460 = test system: NCI-H460
SW-620 = test system: SW-620
UACC-62 = test system: UACC-62
MDA-MB-231 = test system: MDA-MB-231
K562 = test system: K562
HCC 2998 = test system: HCC 2998
NCI/ADR-RES = test system: NCI/ADR-RES
OVCAR-5 = test system: OVCAR-5
PC-3 = test system: PC-3
RXF 393 = test system: RXF 393
IGROV-1 = test system: IGROV-1
SK-OV-3 = test system: SK-OV-3
ACHN = test system: ACHN
CAKI-1 = test system: CAKI-1
SNB-75 = test system: SNB-75

Measured: GI50

c1ccc2c(c1)Sc1ccccc1N2CCCN1c2ccccc2Sc2ccccc21
inactive: NCI-H522 > 100 µM | LOX IMVI > 100 µM | SF-268 > 100 µM | SK-MEL-28 > 100 µM | NCI-H460 39.9 µM | SW-620 > 100 µM | UACC-62 > 100 µM | MDA-MB-231 > 100 µM | K562 > 100 µM | HCC 2998 > 100 µM | NCI/ADR-RES 69.8 µM | OVCAR-5 > 100 µM | PC-3 > 100 µM | RXF 393 78.5 µM | IGROV-1 > 100 µM | SK-OV-3 > 100 µM | ACHN 39.1 µM | CAKI-1 > 100 µM

COc1ccc(C2=NN(C(=O)c3ccccc3)C(O)(c3cc(F)c(Cl)cc3Cl)C2)cc1OC (centres undefined)
inactive: NCI-H522 56.1 µM | LOX IMVI 97.1 µM | SF-268 55.5 µM | SK-MEL-28 49.8 µM | NCI-H460 83.2 µM | SW-620 > 100 µM | UACC-62 45.6 µM | MDA-MB-231 42.2 µM | K562 > 100 µM | HCC 2998 30.9 µM | NCI/ADR-RES 62.1 µM | OVCAR-5 71.3 µM | PC-3 31.3 µM | RXF 393 18.9 µM | IGROV-1 40.1 µM | SK-OV-3 20.9 µM | ACHN 32.5 µM | CAKI-1 27.5 µM

COc1cccc(-c2c(-c3ccccc3)[nH]c(C)c2C(=O)ONC(=O)c2ccccc2)c1
inactive: NCI-H522 3.78 µM | LOX IMVI 1.89 µM | SF-268 7.57 µM | SK-MEL-28 14.7 µM | NCI-H460 3.19 µM | SW-620 13.6 µM | UACC-62 13.8 µM | MDA-MB-231 9.55 µM | K562 2.89 µM | HCC 2998 14.4 µM | NCI/ADR-RES 8.93 µM | OVCAR-5 9.06 µM | PC-3 11.6 µM | RXF 393 4.35 µM | IGROV-1 1.66 µM | SK-OV-3 14.2 µM | ACHN 2.99 µM | CAKI-1 3.18 µM | SNB-75 5.86 µM

Nc1nc(-c2cccnc2)cc(-c2cc(-c3cccnc3)nc(N)n2)n1
inactive: NCI-H522 > 100 µM | LOX IMVI > 100 µM | SF-268 > 100 µM | SK-MEL-28 > 100 µM | NCI-H460 > 100 µM | SW-620 > 100 µM | UACC-62 > 100 µM | MDA-MB-231 > 100 µM | K562 > 100 µM | HCC 2998 > 100 µM | NCI/ADR-RES > 100 µM | OVCAR-5 > 100 µM | PC-3 > 100 µM | RXF 393 > 100 µM | IGROV-1 > 100 µM | SK-OV-3 > 100 µM | ACHN > 100 µM | CAKI-1 > 100 µM

Cn1c(=O)c2[nH]c(/N=N\n3ccc4ccccc43)nc2n(C)c1=O
inactive: NCI-H522 > 100 µM | LOX IMVI > 100 µM | SF-268 > 100 µM | SK-MEL-28 > 100 µM | NCI-H460 > 100 µM | SW-620 > 100 µM | UACC-62 > 100 µM | MDA-MB-231 > 100 µM | K562 > 100 µM | HCC 2998 > 100 µM | NCI/ADR-RES > 100 µM | OVCAR-5 > 100 µM | PC-3 > 100 µM | RXF 393 > 100 µM | SK-OV-3 > 100 µM | ACHN > 100 µM | CAKI-1 > 100 µM | SNB-75 > 100 µM

Cn1c(=O)c2nc(CCCCC(=O)O)[nH]c2n(C)c1=O
inactive: NCI-H522 > 100 µM | LOX IMVI > 100 µM | SF-268 > 100 µM | SK-MEL-28 > 100 µM | NCI-H460 > 100 µM | SW-620 > 100 µM | UACC-62 > 100 µM | MDA-MB-231 > 100 µM | HCC 2998 > 100 µM | NCI/ADR-RES > 100 µM | OVCAR-5 > 100 µM | PC-3 > 100 µM | RXF 393 > 100 µM | IGROV-1 61.7 µM | ACHN > 100 µM | CAKI-1 > 100 µM | SNB-75 > 100 µM

O=C1NC(N2CCCCC2)=N/C1=C\c1cccs1
inactive: NCI-H522 > 100 µM | LOX IMVI > 100 µM | SF-268 > 100 µM | SK-MEL-28 > 100 µM | SW-620 > 100 µM | UACC-62 > 100 µM | MDA-MB-231 > 100 µM | HCC 2998 > 100 µM | NCI/ADR-RES > 100 µM | OVCAR-5 > 100 µM | PC-3 > 100 µM | RXF 393 > 100 µM | IGROV-1 > 100 µM | SK-OV-3 > 100 µM | ACHN > 100 µM | CAKI-1 > 100 µM

COC(=O)[C@@H]1C[C@H]2[C@H](c3ccccc3Br)[C@@H](OC(C)=O)[C@@H](OCc3ccccc3)ON2O1
inactive: LOX IMVI > 100 µM | SF-268 > 100 µM | SK-MEL-28 > 100 µM | NCI-H460 92.3 µM | SW-620 > 100 µM | UACC-62 > 100 µM | MDA-MB-231 > 100 µM | K562 > 100 µM | HCC 2998 51.9 µM | NCI/ADR-RES > 100 µM | OVCAR-5 > 100 µM | PC-3 > 100 µM | RXF 393 > 100 µM | IGROV-1 21.9 µM | SK-OV-3 > 100 µM | ACHN > 100 µM | CAKI-1 > 100 µM | SNB-75 > 100 µM

CCOC(=O)C(Cc1ccc(OC(=O)c2ccc(OC)cc2)cc1)NC(=O)C(F)(F)F (centres undefined)
inactive: NCI-H522 > 100 µM | LOX IMVI > 100 µM | SF-268 35.6 µM | NCI-H460 > 100 µM | SW-620 > 100 µM | UACC-62 > 100 µM | MDA-MB-231 77.6 µM | K562 > 100 µM | HCC 2998 > 100 µM | NCI/ADR-RES > 100 µM | OVCAR-5 > 100 µM | PC-3 > 100 µM | RXF 393 27.9 µM | IGROV-1 45.3 µM | SK-OV-3 > 100 µM | ACHN 53.6 µM | CAKI-1 > 100 µM | SNB-75 20.7 µM

COc1ccc2c(c1)CCCN1CCc3cc(OC)c(OC)cc3C21 (centres undefined)
inactive: LOX IMVI 77.1 µM | SF-268 > 100 µM | SK-MEL-28 > 100 µM | SW-620 > 100 µM | UACC-62 > 100 µM | MDA-MB-231 > 100 µM | K562 61.7 µM | HCC 2998 45.7 µM | NCI/ADR-RES 21.8 µM | OVCAR-5 > 100 µM | PC-3 > 100 µM | IGROV-1 > 100 µM | SK-OV-3 > 100 µM | ACHN 84.1 µM | CAKI-1 > 100 µM | SNB-75 > 100 µM

CCOC(OCC)C(CCc1ccccc1)c1c(N)nc(N)[nH]c1=O (centres undefined)
inactive: LOX IMVI 64.3 µM | SF-268 52 µM | SK-MEL-28 > 100 µM | NCI-H460 56.8 µM | SW-620 78.7 µM | UACC-62 46.1 µM | MDA-MB-231 > 100 µM | K562 24.7 µM | HCC 2998 26.1 µM | NCI/ADR-RES > 100 µM | OVCAR-5 13.5 µM | PC-3 39.3 µM | RXF 393 57.7 µM | IGROV-1 37.1 µM | SK-OV-3 25.9 µM | CAKI-1 34.9 µM | SNB-75 > 100 µM

COC(=O)[C@@H]1Cc2ccc(OC)c(c2)OCCC(=O)N1
inactive: NCI-H522 > 100 µM | SF-268 > 100 µM | SK-MEL-28 > 100 µM | SW-620 > 100 µM | UACC-62 > 100 µM | MDA-MB-231 > 100 µM | K562 > 100 µM | HCC 2998 > 100 µM | NCI/ADR-RES > 100 µM | OVCAR-5 > 100 µM | PC-3 > 100 µM | RXF 393 > 100 µM | IGROV-1 3.14 µM | SK-OV-3 > 100 µM | ACHN > 100 µM | CAKI-1 > 100 µM | SNB-75 > 100 µM

COc1ccc(Cc2nccc3cc(OC)c(OC)cc23)cc1OC [PAPAVERINE HYDROCHLORIDE]
inactive: NCI-H522 > 100 µM | LOX IMVI 60.8 µM | SF-268 > 100 µM | SK-MEL-28 > 100 µM | NCI-H460 19 µM | SW-620 > 100 µM | UACC-62 > 100 µM | MDA-MB-231 47.2 µM | K562 37.3 µM | HCC 2998 92.9 µM | NCI/ADR-RES 26.7 µM | OVCAR-5 > 100 µM | PC-3 74.3 µM | IGROV-1 > 100 µM | SK-OV-3 > 100 µM | ACHN 63 µM | CAKI-1 47.3 µM | SNB-75 > 100 µM

CCOC(=O)c1nc(SC)sc1NC(=O)c1ccc(OC)cc1
inactive: NCI-H522 > 100 µM | LOX IMVI > 100 µM | SF-268 > 100 µM | SK-MEL-28 75 µM | NCI-H460 35.6 µM | SW-620 49.1 µM | UACC-62 > 100 µM | MDA-MB-231 35.2 µM | K562 > 100 µM | HCC 2998 43.6 µM | NCI/ADR-RES > 100 µM | OVCAR-5 > 100 µM | PC-3 > 100 µM | RXF 393 33.4 µM | IGROV-1 > 100 µM | SK-OV-3 63.1 µM | ACHN 47.8 µM | CAKI-1 > 100 µM

CCS(=O)(=O)CCn1c(=O)c2c(ncn2C)n(C)c1=O
inactive: NCI-H522 > 100 µM | LOX IMVI > 100 µM | SF-268 > 100 µM | SK-MEL-28 > 100 µM | NCI-H460 > 100 µM | SW-620 > 100 µM | UACC-62 > 100 µM | MDA-MB-231 > 100 µM | K562 > 100 µM | HCC 2998 > 100 µM | NCI/ADR-RES > 100 µM | OVCAR-5 > 100 µM | PC-3 > 100 µM | RXF 393 > 100 µM | IGROV-1 > 100 µM | ACHN > 100 µM | CAKI-1 > 100 µM | SNB-75 > 100 µM
